# From patent publication US20240261443A1, “COMPOUNDS AND COMPOSITIONS USEFUL AS RADIOTRACERS FOR IMAGING OF REACTIVE OXIDATIVE SPECIES” (Wake Forest University Health Sciences, priority 2019, published 2024)
# Assays:
# [1] = test system: normal organs; experiment: Toxicity observation in blocking studies, KS1 15 mg/kg; format: in vivo; settings: 15 mg/kg injected
# Protocol: Athymic nude mice (Taconic Farms) were housed in a pathogen-free facility of the Animal Research Program at Wake Forest School of Medicine under a 12:12-h light/dark cycle and fed ad libitum. All animal experiments were conducted under IACUC approved protocols in compliance with the guidelines for the care and use of research animals established by Wake Forest Medical School Animal Studies Committee. PC3 cells (1×10^5 cells suspended in 10 μL matrigel) were implanted in the left flank of nude mice (25-30 g) as described previously. […] Samples of tumor, blood, brain, heart, lung, liver, spleen, pancreas, kidney, muscle and bone were harvested, weighed, and gamma counted with a standard dilution of the injectate (Chu et al., Development of a PET Radiotracer for Noninvasive Imaging of the Reactive Oxygen Species, Superoxide, in vivo. Organic & biomolecular chemistry. 2014; 12:4421-31; Sai et al., Radiolabeling and initial biological evaluation of [(18)F]KBM-1 for imaging RAR-α receptors in neuroblastoma. Bioorganic & medicinal chemistry letters. 2017; 27:1425-7; Kumar et al., Radiosynthesis and in Vivo Evaluation of [11C]MPC-6827, the First Brain Penetrant Microtubule PET Ligand. […] The percentage of the injected dose per gram of tissue (% ID/g) was calculated.
# [2] = Ex vivo biodistribution in normal ICR mice; settings: for blood uptake / kidney uptake / liver uptake: in %ID/g (unit assumed)
# [3] = test system: SCC-61 and rSCC-61 cells; experiment: [18F]KS1 in vitro cell uptake in HNSCC cells; format: cell-based, human
# Protocol: ROS efficacy was evaluated in two tumor cell lines: (1)SCC-61 and rSCC-61 cells (HNSCC) (FIG. 5), and (2) PC3 (PCa) cell lines under normoxic and hypoxic conditions (FIG. 6) following previously published protocols by our group (Sai et al., Peptide-based PET imaging of the tumor restricted IL13RA2 biomarker. Oncotarget 2017, 5; Yamamoto et al., Correlation of 18F-FLT and 18F-FDG uptake on PET with Ki-67 immunohistochemistry in non-small cell lung cancer. European Journal of Nuclear Medicine and Molecular Imaging 2007, 34 (10), 1610-1616; Solingapuram Sai et al., Radiolabeling and initial biological evaluation of [18F]KBM-1 for imaging RAR-α receptors in neuroblastoma. Bioorganic & Medicinal Chemistry Letters 2017, 27 (6), 1425-1427). Several ROS blockers including fresh solution of non-radioactive compounds KS1, KS2, SOD (10 μM) in the cell media were added to the seeded tumor cells 1.0 h prior to radiotracer addition (n=6 per blocker). All the cells were then treated with [^18F]KS1 (2.0 μCi/well, UV mass=0.4 μg/mL and S.A=3100 mCi/μmol) and incubated for 60 min (n=6) at 37° C. All the cells (both with and without blockers) were washed and lysed with lysate buffer solution. Lysate samples from each well were collected for gamma counting.
# Similarly, in another experiment, human PCa-PC3 cells were cultured under normoxic (˜21% O2) or hypoxic (1% O2) conditions for 48 h. Thereafter, similar to HNSCC cells (detailed above) all assay steps including blocker treatment, radiotracer addition, incubations, washings and lysis were carried out under normoxic or hypoxic conditions. All hypoxia experiments were performed in a hypoxia chamber (Biospherix X3 Xvivo system). Plates without radioactivity were used as controls. Additional aliquots were taken from each well to measure protein concentration. The counts per minute values of each well were normalized to the amount of radioactivity added to each well and was expressed as percent uptake relative to the control condition. The data were expressed as % ID/mg of protein present in each well.
# We reported the basic in vitro cell uptake assay of [^18F]KS1 in PC3 and SCC-61 cell lines using KS1 and ascorbate as blockers (Solingapuram Sai et al., Initial biological evaluations of 18F-KS1, a novel ascorbate derivative to image oxidative stress in cancer. EJNMMI Research 2019, 9 (1), 43), following previously published protocols by our group (Sai, et al., Peptide-based PET imaging of the tumor restricted IL13RA2 biomarker. Oncotarget 2017, 8 (31), 50997-51007; Solingapuram Sai et al., Radiolabeling and initial biological evaluation of [(18)F]KBM-1 for imaging RAR-α receptors in neuroblastoma. Bioorganic & medicinal chemistry letters 2017, 27 (6), 1425-1427; Sattiraju et al., IL13RA2 targeted alpha particle therapy against glioblastomas. Oncotarget 2017, 8 (26), 42997-43007). Here we report complete cell uptake of [^18F]KS1 in SCC-61 and rSCC-61 cell lines of HNSCC using several ROS blocking agents including ascorbate, SOD, catalase, DHE, and non-radioactive compounds KS1 ([…]) and few ROS inducers including doxorubicin and ferritin. These agents were added in the cell media to the seeded tumor cells 1.0 h prior to radiotracer addition (n=6 per blocker). The y counts per minute values of each well were normalized to the amount of radioactivity added to each well and the protein concentration in the well and expressed as percent uptake relative to the control condition. The data were expressed as % ID/mg of protein present in each well. […]
# [4] = test system: PC3 tumors; experiment: microPET imaging in PC3 tumor-bearing mice; format: in vivo; settings: ROI analysis
smiles,measurement,setting,value
"O=C1O/C(=C/CCl)C(O)=C1OCc1ccc(OCCF)cc1 [KS1, (E)-5-(2-chloroethylidene)-3-(4-(2-fluoroethoxy)benzyloxy)-4-hydroxyfuran-2(5H)-one]",toxicity in normal organs,[1],did not observe any toxicity
O=C1O/C(=C/CCl)C(O)=C1OCc1ccc(OCC[18F])cc1 [[^18F]KS1],blood uptake,[2]; 5 min post injection,1.361±0.71
same,kidney uptake,[2]; 5 min post injection,14.793±1.33
same,liver uptake,[2]; 5 min post injection,9.72±2.55
same,blood uptake,[2]; 120 min post injection,0.31±0.071
same,kidney uptake,[2]; 120 min post injection,3.23±1.30
same,liver uptake,[2]; 120 min post injection,2.124±1.12
same,bone uptake,[2]; normal ICR mice,No significant bone uptake
same,brain uptake,[2]; normal ICR mice,Poor brain uptake
same,uptake increase with ROS inducer doxorubicin,[3]; Example 8,~30%
same,radioactive uptake in SCC-61 cells compared to rSCC-61 uptake,"[3]; Example 8, 60 min, 37° C.",~1.5 fold
same,uptake blocked by nonradioactive KS1,"[3]; Example 8, KS1 10 μM added 1.0 h prior",~40%
same,uptake blocked by SOD,"[3]; Example 8, SOD 10 μM added 1.0 h prior",~60%
same,radioactive uptake in SCC-61 cells compared to rSCC-61 uptake,[3]; Example 14,~3 fold
same,radioactive uptake increased by ROS-inducer Dox,[3]; Example 14,~20%
same,radioactive uptake increased by ferritin,[3]; Example 14,~32%
same,radioactive uptake inhibited by catalase,[3]; Example 14,~90%
same,uptake in SCC-61 cells blocked by nonradioactive KS1,"[3]; Example 14, KS1 (100 PM) added 1.0 h prior",~70%
same,uptake in SCC-61 cells blocked by SOD,"[3]; Example 14, added 1.0 h prior",~65%
same,uptake in SCC-61 cells blocked by ascorbate,"[3]; Example 14, added 1.0 h prior",~65%
same,"tumor uptake with nonradioactive KS1 pretreatment, lower than baseline",[4]; KS1 15 mg/kg 45 min before tracer,~3 fold
same,tumor uptake on mPET scans,[4]; baseline,high tumor uptake
